In PubChem BioAssay (NCI):
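A five-concentration, 48-hour dose response in 96-well plates underlies each endpoint, interpolated linearly between surrounding concentrations. TGI denotes the concentration required for complete inhibition of growth.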

What was measured:
Test in all cases: inhibition of tumour cell growth, NCI panel, 48 h
786-0 renal = test system: 786-0 renal
A498 renal = test system: A498 renal
A549 NSCLC = test system: A549 NSCLC
ACHN renal = test system: ACHN renal
BT-549 breast = test system: BT-549 breast
CAKI-1 renal = test system: CAKI-1 renal
CCRF-CEM leukemia = test system: CCRF-CEM leukemia
COLO 205 colon = test system: COLO 205 colon
EKVX NSCLC = test system: EKVX NSCLC
HCT-116 colon = test system: HCT-116 colon
HCT-15 colon = test system: HCT-15 colon
HOP-62 NSCLC = test system: HOP-62 NSCLC
HOP-92 NSCLC = test system: HOP-92 NSCLC
HS 578T breast = test system: HS 578T breast
HT29 colon = test system: HT29 colon
IGROV1 ovarian = test system: IGROV1 ovarian
K-562 leukemia = test system: K-562 leukemia
KM12 colon = test system: KM12 colon
M14 melanoma = test system: M14 melanoma
MCF7 breast = test system: MCF7 breast
MDA-MB-231 breast = test system: MDA-MB-231 breast
MDA-MB-435 = test system: MDA-MB-435
MDA-N = test system: MDA-N
MOLT-4 leukemia = test system: MOLT-4 leukemia
NCI-H226 lung = test system: NCI-H226 lung
NCI-H23 lung = test system: NCI-H23 lung
NCI-H460 lung = test system: NCI-H460 lung
NCI/ADR-RES ovarian = test system: NCI/ADR-RES ovarian
OVCAR-3 ovarian = test system: OVCAR-3 ovarian
OVCAR-4 ovarian = test system: OVCAR-4 ovarian
OVCAR-5 ovarian = test system: OVCAR-5 ovarian
OVCAR-8 ovarian = test system: OVCAR-8 ovarian
PC-3 prostate = test system: PC-3 prostate
RPMI-8226 leukemia = test system: RPMI-8226 leukemia
RXF 393 renal = test system: RXF 393 renal
SF-268 CNS = test system: SF-268 CNS
SF-295 CNS = test system: SF-295 CNS
SF-539 CNS = test system: SF-539 CNS
SK-MEL-2 melanoma = test system: SK-MEL-2 melanoma
SK-MEL-28 melanoma = test system: SK-MEL-28 melanoma
SK-MEL-5 melanoma = test system: SK-MEL-5 melanoma
SN12C renal = test system: SN12C renal
SNB-19 CNS = test system: SNB-19 CNS
SNB-75 CNS = test system: SNB-75 CNS
SR leukemia = test system: SR leukemia
SW-620 colon = test system: SW-620 colon
T-47D breast = test system: T-47D breast
TK-10 renal = test system: TK-10 renal
U251 CNS = test system: U251 CNS
UACC-257 melanoma = test system: UACC-257 melanoma
UACC-62 melanoma = test system: UACC-62 melanoma
UO-31 renal = test system: UO-31 renal

Measured: TGI

O=C(O)c1ccccn1
> 100 µM: 786-0 renal | A498 renal | A549 NSCLC | ACHN renal | BT-549 breast | CAKI-1 renal | CCRF-CEM leukemia | COLO 205 colon | EKVX NSCLC | HCT-116 colon | HCT-15 colon | HOP-62 NSCLC | HOP-92 NSCLC | HS 578T breast | HT29 colon | IGROV1 ovarian | K-562 leukemia | KM12 colon | M14 melanoma | MCF7 breast | MDA-MB-231 breast | MDA-MB-435 | MDA-N | MOLT-4 leukemia | NCI-H226 lung | NCI-H23 lung | NCI-H460 lung | NCI/ADR-RES ovarian | OVCAR-3 ovarian | OVCAR-4 ovarian | OVCAR-5 ovarian | OVCAR-8 ovarian | PC-3 prostate | RPMI-8226 leukemia | RXF 393 renal | SF-268 CNS | SF-295 CNS | SF-539 CNS | SK-MEL-2 melanoma | SK-MEL-28 melanoma | SK-MEL-5 melanoma | SN12C renal | SNB-19 CNS | SNB-75 CNS | SR leukemia | SW-620 colon | T-47D breast | TK-10 renal | U251 CNS | UACC-257 melanoma | UACC-62 melanoma | UO-31 renal
